In publication PMC6491434 (Scientific Reports, 2019):

Legend:
ABCB4-I541F [1] = target: T1, ABCB4-I541F (Homo sapiens, UniProt P21439, I541F); assay: Maturation of ABCB4-I541F by immunoblot in HEK cells; format: cell-based; design: wild type (WT) ABCB4, isoform A (NM_000443.3), into pcDNA3 vector; expressed in transfected cells; host or cells: HEK-293 (immunoblot, PC secretion); conditions: 100 µM, 16 hours
Method: For transient transfection of HEK cells, they were seeded at subconfluent levels in the adequate tissue culture wells at least six hours before transfection. Turbofect (Thermo Fisher scientific) was used at a ratio of reagent:DNA of 2:1 according to manufacturer’s instructions. For transient transfection of HepG2 cells, subconfluent cultures were seeded in the adequate culture wells 24 hours before transfection. Lipofectamine 3000 (Thermo Fisher Scientific) was used at a ratio of reagent:DNA of 1.5:1 according to manufacturer’s instructions. Cell treatments and processing for further analyses were performed at least 16 hours post-transfection.
(§1) Cyclosporin A (CsA) was from Santa Cruz Biotechnologies (Dallas, TX). […] Each compound was solubilized in dimethylsulfoxide (DMSO) as 1000X concentrated stock solutions in order to treat cells with 5 µM to 100 µM final concentrations, using DMSO as control vehicle at the same dilution (0.1% DMSO for all conditions). The cells were treated 24 hours post-transfection with these drugs during 16 hours, except for the viability assays for which cells were treated during three days. After drug treatment, cells were used for immunoanalyses, cell viability assays or PC secretion assays.
Western blots and indirect immunofluorescence were performed as previously described[9],[50]. […] Signals were detected with ECL prime western blotting detection reagent (GE Healthcare, Velizy-Villacoublay, France) and quantified in the linear range of detection using ImageJ 1.50i software (U.S. National Institutes of Health, Bethesda, MD).

CK1 = assay: protein kinase catalytic activity assay, CK1; format: biochemical; conditions: read-out: IC50 towards CK1
CDK9/T = target: T2, CDK9/T (Homo sapiens, UniProt P50750); assay: protein kinase catalytic activity assay, CDK9/cyclin T; format: biochemical; conditions: read-out: IC50 towards CDK9/T
T2 construct: made in house

CDK2/A = target: T3, CDK2/A (Homo sapiens, UniProt P24941); assay: protein kinase catalytic activity assay, CDK2/cyclin A; format: biochemical; conditions: read-out: IC50 towards CDK2/A
T3 construct: made in house

CDK5/p25 = target: T4, CDK5/p25 (Homo sapiens, UniProt Q00535); assay: protein kinase catalytic activity assay, CDK5/p25; format: biochemical; conditions: read-out: IC50 towards CDK5/p25
T4 construct: made in house

ABCB4-I541F [2] = target: T1, ABCB4-I541F; assay: ABCB4-mediated phosphatidylcholine secretion, HEK cells expressing ABCB4-I541F; format: cell-based; design: wild type (WT) ABCB4, isoform A (NM_000443.3), into pcDNA3 vector; expressed in transfected cells; host or cells: HEK-293 (immunoblot, PC secretion); conditions: 25 µM, vehicle 7.1 ± 0.8%
Method: as §1
(§2) HEK cells were seeded in 0.01% poly-L-lysine (Sigma) pre-coated 6-well plates of 10 cm² area per well (1.3 × 10^6 cells per well). After transient transfection of the empty vector (control), plasmids encoding ABCB4-WT or its variants, cells were incubated during 24 hours at 37 °C in serum-free medium supplemented with 0.5 mM sodium taurocholate (Sigma) and 0.02% fatty acid–free bovine serum albumin (Sigma). Then, the secreted PC was quantified from the collected media using a fluoro-enzymatic assay previously described. Each condition was analysed in triplicate, after background subtraction, and results were normalized to the expression levels of ABCB4 determined by immunoblots of the corresponding cell lysates.

ABCB4-L556R = target: T5, ABCB4-L556R (Homo sapiens, UniProt P21439, L556R); assay: Canalicular localisation of ABCB4-L556R by indirect immunofluorescence in HepG2 cells; format: cell-based; conditions: 25 µM
T5 construct: wild type (WT) ABCB4, isoform A (NM_000443.3), into pcDNA3 vector; expressed in transfected cells; host or cells: HepG2

ABCB4-I490T = target: T6, ABCB4-I490T (Homo sapiens, UniProt P21439, I490T); assay: Canalicular localisation of ABCB4-I490T by indirect immunofluorescence in HepG2 cells; format: cell-based; conditions: 25 µM
T6 construct: wild type (WT) ABCB4, isoform A (NM_000443.3), into pcDNA3 vector; expressed in transfected cells; host or cells: HepG2

ABCB4-WT [3] = target: T7, ABCB4-WT (Homo sapiens, UniProt P21439); assay: ABCB4-mediated phosphatidylcholine secretion, HEK cells expressing ABCB4-WT; format: cell-based; conditions: from dose-response curves of Fig. 4C, read-out: IC50 (µM) (min-max) on the PC secretion activity of ABCB4-WT
T7 construct: wild type (WT) ABCB4, isoform A (NM_000443.3), into pcDNA3 vector; expressed in transfected cells; host or cells: HEK-293
Method: as §1, §2

ABCB4-I541F [4] = target: T1, ABCB4-I541F; design: wild type (WT) ABCB4, isoform A (NM_000443.3), into pcDNA3 vector; expressed in transfected cells; host or cells: HEK-293 (immunoblot, PC secretion); HepG2 (immunofluorescence); method as in PMID 22184139, PMID 19185004; conditions: cited from earlier work
ABCB4-WT [5] = target: T7, ABCB4-WT; design: method as in PMID 24806754; conditions: cited from earlier work
HEK cells = assay: Cell viability, MTT assay; conditions: three days
Method: as §1
(§3) Cell viability was assessed by the conversion of MTT (3-[4,5-dimethylthiazol-2-yl]-2,5 diphenyl tetrazolium bromide) into formazan crystals by living cells, as described. In brief, HEK cells were seeded in 96-well plates in triplicate for each tested condition, including controls (no cells, no treatment, treatment with vehicle). […] These conditions were optimized in order to maintain the absorbance at 540 nm of the blanks below 0.1 OD unit (negative controls) and the absorbance at 540 nm for untreated cells between 1.0 and 1.3 OD units (positive controls). Then culture media were gently washed out, cells were lysed in 100 µL of pure DMSO and absorbance at 540 nm was measured using a multiplate cytofluorimeter SpectraFluor from Tecan (Männedorf, Switzerland). Cell viability was calculated for each triplicate after background subtraction and expressed as percentage of the mean for cells treated with vehicle only.

[6] = Cell viability, MTT assay; conditions: human
Method: as §1, §3

T1 sequence (P21439 1-1279 isoform P21439-2 I541F): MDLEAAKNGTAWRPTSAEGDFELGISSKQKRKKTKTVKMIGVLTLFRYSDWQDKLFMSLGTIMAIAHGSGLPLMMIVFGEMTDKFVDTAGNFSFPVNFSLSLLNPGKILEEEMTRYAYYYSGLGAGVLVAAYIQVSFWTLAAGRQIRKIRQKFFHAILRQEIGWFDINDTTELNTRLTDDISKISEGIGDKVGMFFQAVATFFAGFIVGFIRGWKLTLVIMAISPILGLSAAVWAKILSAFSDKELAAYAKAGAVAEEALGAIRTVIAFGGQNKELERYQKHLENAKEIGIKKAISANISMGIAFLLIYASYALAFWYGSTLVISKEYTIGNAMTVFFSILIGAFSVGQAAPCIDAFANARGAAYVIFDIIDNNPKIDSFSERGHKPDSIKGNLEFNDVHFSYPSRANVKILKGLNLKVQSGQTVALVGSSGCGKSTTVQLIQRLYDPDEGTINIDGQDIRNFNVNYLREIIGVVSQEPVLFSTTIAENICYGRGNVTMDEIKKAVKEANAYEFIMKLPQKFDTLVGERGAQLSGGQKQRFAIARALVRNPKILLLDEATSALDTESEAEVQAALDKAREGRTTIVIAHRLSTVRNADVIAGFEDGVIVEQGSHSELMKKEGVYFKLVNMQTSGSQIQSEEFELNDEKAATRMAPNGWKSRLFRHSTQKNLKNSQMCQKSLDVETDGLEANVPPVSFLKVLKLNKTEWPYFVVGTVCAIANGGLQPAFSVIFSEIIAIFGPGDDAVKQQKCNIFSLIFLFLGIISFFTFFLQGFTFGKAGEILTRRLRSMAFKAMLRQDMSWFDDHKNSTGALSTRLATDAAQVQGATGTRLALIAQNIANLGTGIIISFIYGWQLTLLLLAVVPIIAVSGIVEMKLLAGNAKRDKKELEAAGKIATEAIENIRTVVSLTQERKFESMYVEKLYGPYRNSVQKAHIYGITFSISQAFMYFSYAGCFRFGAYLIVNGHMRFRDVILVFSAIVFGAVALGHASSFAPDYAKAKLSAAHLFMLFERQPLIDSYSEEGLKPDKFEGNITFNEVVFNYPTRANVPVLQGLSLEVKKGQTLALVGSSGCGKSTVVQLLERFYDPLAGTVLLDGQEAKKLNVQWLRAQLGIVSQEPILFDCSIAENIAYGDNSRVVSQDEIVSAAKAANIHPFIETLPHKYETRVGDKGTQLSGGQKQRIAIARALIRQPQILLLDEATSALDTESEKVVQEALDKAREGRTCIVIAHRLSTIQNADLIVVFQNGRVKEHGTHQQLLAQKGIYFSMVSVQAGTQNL
T2 sequence (P50750 whole entry, species assumed): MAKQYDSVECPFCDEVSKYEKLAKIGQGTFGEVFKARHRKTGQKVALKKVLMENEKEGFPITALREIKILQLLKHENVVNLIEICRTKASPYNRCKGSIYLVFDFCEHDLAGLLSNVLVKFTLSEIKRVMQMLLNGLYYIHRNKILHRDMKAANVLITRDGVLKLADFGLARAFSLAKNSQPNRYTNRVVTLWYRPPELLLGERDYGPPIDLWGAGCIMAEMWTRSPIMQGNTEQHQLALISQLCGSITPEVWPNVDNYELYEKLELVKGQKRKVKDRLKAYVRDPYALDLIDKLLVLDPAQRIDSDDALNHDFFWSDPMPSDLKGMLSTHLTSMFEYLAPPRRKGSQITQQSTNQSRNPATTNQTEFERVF
T2 sequence (O60563 whole entry partner, species assumed): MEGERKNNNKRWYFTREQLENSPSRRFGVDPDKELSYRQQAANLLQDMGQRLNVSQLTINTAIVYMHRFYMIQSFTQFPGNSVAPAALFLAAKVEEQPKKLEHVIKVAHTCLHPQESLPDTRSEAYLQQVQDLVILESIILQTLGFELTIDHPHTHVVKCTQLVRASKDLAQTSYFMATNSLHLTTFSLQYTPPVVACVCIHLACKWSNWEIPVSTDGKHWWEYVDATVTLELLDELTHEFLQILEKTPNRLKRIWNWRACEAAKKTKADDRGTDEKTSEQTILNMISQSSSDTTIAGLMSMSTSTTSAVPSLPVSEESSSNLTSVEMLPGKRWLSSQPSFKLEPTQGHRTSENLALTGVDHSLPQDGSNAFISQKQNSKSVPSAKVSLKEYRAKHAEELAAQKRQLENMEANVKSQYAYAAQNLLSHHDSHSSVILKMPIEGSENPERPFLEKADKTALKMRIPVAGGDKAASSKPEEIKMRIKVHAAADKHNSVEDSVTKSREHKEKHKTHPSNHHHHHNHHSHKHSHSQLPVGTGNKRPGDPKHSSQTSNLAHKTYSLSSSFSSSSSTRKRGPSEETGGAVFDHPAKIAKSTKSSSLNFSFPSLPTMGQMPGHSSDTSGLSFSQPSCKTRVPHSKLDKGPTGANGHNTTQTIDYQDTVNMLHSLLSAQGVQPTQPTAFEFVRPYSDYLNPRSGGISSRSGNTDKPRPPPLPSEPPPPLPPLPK
T7 sequence (P21439 1-1279 isoform P21439-2): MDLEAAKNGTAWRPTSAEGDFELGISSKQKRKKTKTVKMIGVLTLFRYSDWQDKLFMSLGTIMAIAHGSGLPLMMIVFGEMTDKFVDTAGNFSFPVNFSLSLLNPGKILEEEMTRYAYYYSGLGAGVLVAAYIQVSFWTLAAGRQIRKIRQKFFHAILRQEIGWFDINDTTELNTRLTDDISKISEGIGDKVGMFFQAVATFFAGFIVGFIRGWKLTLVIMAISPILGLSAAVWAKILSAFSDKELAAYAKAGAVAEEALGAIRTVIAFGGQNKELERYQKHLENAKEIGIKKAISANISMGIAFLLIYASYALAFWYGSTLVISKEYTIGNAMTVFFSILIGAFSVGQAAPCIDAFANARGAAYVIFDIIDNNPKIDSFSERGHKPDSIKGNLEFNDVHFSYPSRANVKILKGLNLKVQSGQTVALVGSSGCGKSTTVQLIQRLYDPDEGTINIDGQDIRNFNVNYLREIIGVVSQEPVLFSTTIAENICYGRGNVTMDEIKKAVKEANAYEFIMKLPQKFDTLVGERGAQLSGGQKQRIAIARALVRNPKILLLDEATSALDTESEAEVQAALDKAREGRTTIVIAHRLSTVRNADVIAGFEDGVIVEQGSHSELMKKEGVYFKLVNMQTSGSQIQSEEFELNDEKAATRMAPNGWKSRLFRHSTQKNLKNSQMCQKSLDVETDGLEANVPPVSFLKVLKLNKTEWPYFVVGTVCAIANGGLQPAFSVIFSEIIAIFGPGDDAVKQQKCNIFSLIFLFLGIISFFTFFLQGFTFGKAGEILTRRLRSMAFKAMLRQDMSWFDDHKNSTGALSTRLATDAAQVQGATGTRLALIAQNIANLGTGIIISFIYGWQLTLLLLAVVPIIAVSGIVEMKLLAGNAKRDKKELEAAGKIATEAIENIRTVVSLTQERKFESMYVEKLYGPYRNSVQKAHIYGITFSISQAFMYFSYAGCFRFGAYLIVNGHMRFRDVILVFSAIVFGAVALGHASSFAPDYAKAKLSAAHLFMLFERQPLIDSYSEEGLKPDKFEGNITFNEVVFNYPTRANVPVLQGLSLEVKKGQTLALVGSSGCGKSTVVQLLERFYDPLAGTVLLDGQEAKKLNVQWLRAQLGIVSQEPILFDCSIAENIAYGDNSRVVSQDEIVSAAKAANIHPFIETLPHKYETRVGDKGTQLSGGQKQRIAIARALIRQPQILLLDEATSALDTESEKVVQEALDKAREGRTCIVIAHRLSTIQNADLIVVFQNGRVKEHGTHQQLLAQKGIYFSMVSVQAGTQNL
T5 sequence (P21439 1-1279 isoform P21439-2 L556R): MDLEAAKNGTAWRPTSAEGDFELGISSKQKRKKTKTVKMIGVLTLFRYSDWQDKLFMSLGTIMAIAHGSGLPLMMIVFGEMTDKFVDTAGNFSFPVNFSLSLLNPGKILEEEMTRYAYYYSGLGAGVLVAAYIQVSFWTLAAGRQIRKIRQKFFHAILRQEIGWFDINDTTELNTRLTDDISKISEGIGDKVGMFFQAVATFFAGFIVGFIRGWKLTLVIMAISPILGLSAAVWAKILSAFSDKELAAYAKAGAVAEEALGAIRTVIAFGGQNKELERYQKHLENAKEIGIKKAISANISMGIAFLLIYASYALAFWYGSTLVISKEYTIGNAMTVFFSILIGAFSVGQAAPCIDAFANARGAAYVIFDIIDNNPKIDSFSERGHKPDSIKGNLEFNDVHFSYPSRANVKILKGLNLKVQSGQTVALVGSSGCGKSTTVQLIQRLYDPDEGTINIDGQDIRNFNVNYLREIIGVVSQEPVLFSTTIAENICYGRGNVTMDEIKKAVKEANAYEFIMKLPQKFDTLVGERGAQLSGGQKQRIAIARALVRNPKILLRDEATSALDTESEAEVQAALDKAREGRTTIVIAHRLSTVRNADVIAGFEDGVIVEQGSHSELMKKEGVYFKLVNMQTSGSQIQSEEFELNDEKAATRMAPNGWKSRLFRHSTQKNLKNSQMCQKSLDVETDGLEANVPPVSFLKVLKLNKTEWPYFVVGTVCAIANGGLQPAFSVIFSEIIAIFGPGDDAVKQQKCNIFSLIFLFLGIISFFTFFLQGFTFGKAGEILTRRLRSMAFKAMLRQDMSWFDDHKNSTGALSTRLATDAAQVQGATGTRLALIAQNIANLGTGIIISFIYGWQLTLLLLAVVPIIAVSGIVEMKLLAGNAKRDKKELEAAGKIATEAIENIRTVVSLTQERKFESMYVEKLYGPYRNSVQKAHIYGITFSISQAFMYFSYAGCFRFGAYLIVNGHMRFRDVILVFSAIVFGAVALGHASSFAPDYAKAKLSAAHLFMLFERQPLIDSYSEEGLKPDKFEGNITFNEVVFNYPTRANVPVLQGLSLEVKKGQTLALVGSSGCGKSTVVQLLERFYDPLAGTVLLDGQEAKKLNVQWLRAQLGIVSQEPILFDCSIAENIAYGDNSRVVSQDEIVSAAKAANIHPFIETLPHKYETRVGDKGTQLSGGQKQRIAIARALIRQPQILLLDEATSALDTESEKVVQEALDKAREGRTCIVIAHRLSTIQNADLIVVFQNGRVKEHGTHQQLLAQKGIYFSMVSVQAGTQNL

## CC[C@@H](Nc1nc(NCc2cccc(C(F)(F)F)c2)c2ncn(C(C)C)c2n1)C(=O)O [MRT2-249]
ABCB4-I541F [1]
  maturation of ABCB4-I541F (expression of the mature form): significantly increase the expression of a mature form of ABCB4-I541F
CK1
  IC50: 5 µM
CDK9/T
  IC50: > 33 µM
CDK2/A
  IC50: 9 µM
CDK5/p25
  IC50: 27 µM

## CC[C@@H](Nc1nc(NCc2cccc(F)c2)c2ncn(C3CCCC3)c2n1)C(=O)O [MRT2-235]
ABCB4-I541F [1]
  maturation of ABCB4-I541F (expression of the mature form): significantly increase the expression of a mature form of ABCB4-I541F
CK1
  IC50: 7 µM
ABCB4-I541F [2]
  PC secretion activity of ABCB4-I541F (% of ABCB4-WT activity): 19.0 ± 3.4%
CDK9/T
  IC50: 7 µM
ABCB4-L556R
  relocalisation of ABCB4-L556R at bile canaliculi: partially relocalised at bile canaliculi
ABCB4-I490T
  relocalisation of ABCB4-I490T at bile canaliculi: partially relocalised at bile canaliculi
ABCB4-WT [3]
  IC50: 21 µM
CDK2/A
  IC50: 5.9 µM
CDK5/p25
  IC50: 8.3 µM

## CC[C@@H](Nc1nc(NCc2ccc(Cl)c(F)c2)c2ncn(C3CCCC3)c2n1)C(=O)O [MRT2-243]
ABCB4-I541F [1]
  maturation of ABCB4-I541F (expression of the mature form): significantly increase the expression of a mature form of ABCB4-I541F
CK1
  IC50: 6.1 µM
ABCB4-I541F [2]
  PC secretion activity of ABCB4-I541F (% of ABCB4-WT activity): 22.5 ± 6.2%
CDK9/T
  IC50: 5 µM
ABCB4-L556R
  relocalisation of ABCB4-L556R at bile canaliculi: partially relocalised at bile canaliculi
ABCB4-I490T
  relocalisation of ABCB4-I490T at bile canaliculi: partially relocalised at bile canaliculi
ABCB4-WT [3]
  IC50: 17.6 µM
CDK2/A
  IC50: 3 µM
CDK5/p25
  IC50: 6.3 µM

## CC(Nc1nc(NCc2ccccc2)c2ncn(C(C)C)c2n1)C(=O)O (stereo not drawn) [MRT2-163]
CK1
  IC50: 20 µM

## CC[C@@H](Nc1nc(NCc2ccccc2)c2ncn(C3CCCC3)c2n1)C(=O)O [MRT2-245]
ABCB4-I541F [1]
  maturation of ABCB4-I541F (expression of the mature form): significantly increase the expression of a mature form of ABCB4-I541F
CK1
  IC50: 17 µM
CDK9/T
  IC50: 28 µM
CDK2/A
  IC50: 6.3 µM
CDK5/p25
  IC50: 15 µM

## Cyclosporin A [CsA]
ABCB4-I541F [4]
  rescue of maturation and canalicular localisation of ABCB4-I541F: partially rescued
ABCB4-WT [5]
  effect on the PC secretion activity of ABCB4: inhibits the PC secretion activity of ABCB4

## CC[C@H](CO)Nc1nc(NCc2ccccc2)c2ncn(C(C)C)c2n1 [Roscovitine, (R)-roscovitine]
HEK cells; 100 µM, HEK cells expressing ABCB4-WT
  cell viability after treatment at 100 µM: massive cell death
HEK cells; increasing concentrations, HEK cells
  cytotoxicity: important dose-dependent cytotoxicity
[6]
  viability at 72 h, 25 µM: < 60%

## CC[C@@H](Nc1nc(NCc2ccccc2)c2ncn(C(C)C)c2n1)C(=O)O [M3, reference compound]
CK1
  IC50: > 33 µM
CDK9/T
  IC50: > 33 µM

## CC[C@@H](Nc1nc(NCc2ccc(F)c(F)c2)c2ncn(C3CCCC3)c2n1)C(=O)O [MRT2-241]
ABCB4-I541F [1]
  maturation of ABCB4-I541F (expression of the mature form): significantly increase the expression of a mature form of ABCB4-I541F
CK1
  IC50: 11 µM
CDK9/T
  IC50: 8 µM
CDK2/A
  IC50: 5.1 µM
CDK5/p25
  IC50: 17 µM

## CC[C@@H](Nc1nc(NCc2cccc(C(F)(F)F)c2)c2ncn(C3CCCC3)c2n1)C(=O)O [MRT2-239]
ABCB4-I541F [1]
  maturation of ABCB4-I541F (expression of the mature form): significantly increase the expression of a mature form of ABCB4-I541F
CK1
  IC50: 4 µM
CDK9/T
  IC50: 20 µM
CDK2/A
  IC50: 8 µM
CDK5/p25
  IC50: 11 µM

## CC[C@@H](Nc1nc(NCc2cccc(Cl)c2)c2ncn(C3CCCC3)c2n1)C(=O)O [MRT2-237]
ABCB4-I541F [1]
  maturation of ABCB4-I541F (expression of the mature form): significantly increase the expression of a mature form of ABCB4-I541F
CK1
  IC50: 3.33 µM
ABCB4-I541F [2]
  PC secretion activity of ABCB4-I541F (% of ABCB4-WT activity): 13.0 ± 3.5%
CDK9/T
  IC50: 9 µM
ABCB4-L556R
  relocalisation of ABCB4-L556R at bile canaliculi: partially relocalised at bile canaliculi
ABCB4-I490T
  relocalisation of ABCB4-I490T at bile canaliculi: partially relocalised at bile canaliculi
ABCB4-WT [3]
  IC50: 29.3 µM
CDK2/A
  IC50: 3.4 µM
CDK5/p25
  IC50: 7.7 µM

## CC(C)n1cnc2c(NCc3ccccc3)nc(N[C@@H](CO)C(=O)O)nc21 [MRT2-164]
CK1
  IC50: 28 µM
CDK9/T
  IC50: 17 µM
